Reference: article PMC5812454 (Nanomedicine : nanotechnology, biology, and medicine, 2016)
Values belong to the compound of their own block, whether it stands above or below them. Where a SMILES comes first, the peptide text is derived from it. Bridges are numbered along the chain shown (N, C = ends). {NH2} = amine

How the values were obtained:
[1] = system: HER2-positive breast cancer; settings: cited from earlier work
[2] = target: T1, Recombinant human HER2 (Thr 23 – Thr 652) fused to IgG1 Fc Tag (Homo sapiens, UniProt P04626); assay: SPR
[3] = target: T1, Recombinant human HER2 (Thr 23 – Thr 652) fused to IgG1 Fc Tag; assay: SPR binding to immobilized HER2
[4] = ref [8]; cited from earlier work

Compound: AON: HER2-mRNA annealing Morpholino AON 5′-CATGGTGCTCACTGCGGCTCCGGC-NH2-3′ (all phosphorodiamidate morpholino (PMO), 3' {NH2})
- tumor growth inhibition ([1]; AON in the absence of HER2 targeting, 2.5 mg/kg, ref [4]): 30–40%

- Kd [2]: 4600 nM
- koff [2]: 0.00054 s⁻¹
- kon [2]: 118 M⁻¹ s⁻¹
Compound: starPEG(PEG200-AHNP)2

- Kd [3]: 520 nM
- koff ([3]; pH 9.5): 0.00042 s⁻¹
Compound: CSCC[C@H](NC(=O)[C@H](Cc1ccc(O)cc1)NC(=O)[C@@H]1CSSC[C@H](NC(=O)[C@@H](N)Cc2ccc(O)cc2)C(=O)N[C@@H](CC(=O)O)C(=O)NCC(=O)N[C@@H](Cc2ccccc2)C(=O)N[C@@H](Cc2ccc(O)cc2)C(=O)N[C@@H](C)C(=O)N1)C(=O)N[C@@H](CC(=O)O)C(=O)N[C@H](C(N)=O)C(C)C [AHNP] (H-YCDGFYACYMDV-NH2; disulfide 2-8)
- tumor growth inhibition (in words) ([1]; free AHNP, dose of 4 mg/kg, ref [12]): only a modest degree of inhibition
- water solubility (in words) [4]: poorly water soluble

- koff [2]: 0.00042 s⁻¹
Compound: AHNP, anti-HER2/neu peptide, 12 amino acid exocyclic mimetic peptide (analogue 3)
